# Test results from PubChem BioAssay (NCI).
#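 Where inhibition never reached the appropriate level, the endpoint shown equals the highest concentration tested. Otherwise, values were interpolated linearly from a five-concentration, 48-hour dose response in 96-well plates. TGI: concentration producing complete growth inhibition.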
# How the values were obtained:
# Assay in all cases: NCI tumour cell line growth inhibition, 48 h
# 786-0 renal = system: 786-0 renal
# A498 renal = system: A498 renal
# A549 NSCLC = system: A549 NSCLC
# ACHN renal = system: ACHN renal
# BT-549 breast = system: BT-549 breast
# CAKI-1 renal = system: CAKI-1 renal
# CCRF-CEM leukemia = system: CCRF-CEM leukemia
# COLO 205 colon = system: COLO 205 colon
# DU-145 prostate = system: DU-145 prostate
# EKVX NSCLC = system: EKVX NSCLC
# HCC-2998 colon = system: HCC-2998 colon
# HCT-116 colon = system: HCT-116 colon
# HCT-15 colon = system: HCT-15 colon
# HL-60(TB) leukemia = system: HL-60(TB) leukemia
# HOP-62 NSCLC = system: HOP-62 NSCLC
# HS 578T breast = system: HS 578T breast
# HT29 colon = system: HT29 colon
# IGROV1 ovarian = system: IGROV1 ovarian
# K-562 leukemia = system: K-562 leukemia
# KM12 colon = system: KM12 colon
# LOX IMVI melanoma = system: LOX IMVI melanoma
# M14 melanoma = system: M14 melanoma
# MALME-3M melanoma = system: MALME-3M melanoma
# MCF7 breast = system: MCF7 breast
# MDA-MB-231 breast = system: MDA-MB-231 breast
# MDA-MB-435 = system: MDA-MB-435
# MDA-N = system: MDA-N
# MOLT-4 leukemia = system: MOLT-4 leukemia
# NCI-H226 lung = system: NCI-H226 lung
# NCI-H23 lung = system: NCI-H23 lung
# NCI-H460 lung = system: NCI-H460 lung
# NCI-H522 lung = system: NCI-H522 lung
# OVCAR-8 ovarian = system: OVCAR-8 ovarian
# PC-3 prostate = system: PC-3 prostate
# RPMI-8226 leukemia = system: RPMI-8226 leukemia
# SF-268 CNS = system: SF-268 CNS
# SF-295 CNS = system: SF-295 CNS
# SF-539 CNS = system: SF-539 CNS
# SK-MEL-28 melanoma = system: SK-MEL-28 melanoma
# SK-MEL-5 melanoma = system: SK-MEL-5 melanoma
# SK-OV-3 ovarian = system: SK-OV-3 ovarian
# SN12C renal = system: SN12C renal
# SNB-19 CNS = system: SNB-19 CNS
# SNB-75 CNS = system: SNB-75 CNS
# SR leukemia = system: SR leukemia
# SW-620 colon = system: SW-620 colon
# T-47D breast = system: T-47D breast
# TK-10 renal = system: TK-10 renal
# UACC-257 melanoma = system: UACC-257 melanoma
# UACC-62 melanoma = system: UACC-62 melanoma
# UO-31 renal = system: UO-31 renal
# NCI/ADR-RES ovarian = system: NCI/ADR-RES ovarian
# OVCAR-3 ovarian = system: OVCAR-3 ovarian
# OVCAR-4 ovarian = system: OVCAR-4 ovarian
# OVCAR-5 ovarian = system: OVCAR-5 ovarian
# RXF 393 renal = system: RXF 393 renal
# SK-MEL-2 melanoma = system: SK-MEL-2 melanoma
# HOP-92 NSCLC = system: HOP-92 NSCLC
# U251 CNS = system: U251 CNS
compound,measurement,setting,value
COc1cccc(C=C2N=C(c3ccccc3)N(n3c(-c4ccccc4)nc4ccccc4c3=O)C2=O)c1,TGI,786-0 renal,> 100 µM
same,TGI,A498 renal,> 100 µM
same,TGI,A549 NSCLC,> 100 µM
same,TGI,ACHN renal,> 100 µM
same,TGI,BT-549 breast,> 100 µM
same,TGI,CAKI-1 renal,> 100 µM
same,TGI,CCRF-CEM leukemia,> 100 µM
same,TGI,COLO 205 colon,> 100 µM
same,TGI,DU-145 prostate,> 100 µM
same,TGI,EKVX NSCLC,> 100 µM
same,TGI,HCC-2998 colon,> 100 µM
same,TGI,HCT-116 colon,> 100 µM
same,TGI,HCT-15 colon,> 100 µM
same,TGI,HL-60(TB) leukemia,59.2 µM
same,TGI,HOP-62 NSCLC,> 100 µM
same,TGI,HS 578T breast,> 100 µM
same,TGI,HT29 colon,> 100 µM
same,TGI,IGROV1 ovarian,> 100 µM
same,TGI,K-562 leukemia,> 100 µM
same,TGI,KM12 colon,> 100 µM
same,TGI,LOX IMVI melanoma,> 100 µM
same,TGI,M14 melanoma,> 100 µM
same,TGI,MALME-3M melanoma,> 100 µM
same,TGI,MCF7 breast,> 100 µM
same,TGI,MDA-MB-231 breast,> 100 µM
same,TGI,MDA-MB-435,> 100 µM
same,TGI,MDA-N,> 100 µM
same,TGI,MOLT-4 leukemia,> 100 µM
same,TGI,NCI-H226 lung,> 100 µM
same,TGI,NCI-H23 lung,> 100 µM
same,TGI,NCI-H460 lung,> 100 µM
same,TGI,NCI-H522 lung,62.1 µM
same,TGI,OVCAR-8 ovarian,> 100 µM
same,TGI,PC-3 prostate,> 100 µM
same,TGI,RPMI-8226 leukemia,> 100 µM
same,TGI,SF-268 CNS,> 100 µM
same,TGI,SF-295 CNS,> 100 µM
same,TGI,SF-539 CNS,> 100 µM
same,TGI,SK-MEL-28 melanoma,> 100 µM
same,TGI,SK-MEL-5 melanoma,> 100 µM
same,TGI,SK-OV-3 ovarian,> 100 µM
same,TGI,SN12C renal,> 100 µM
same,TGI,SNB-19 CNS,> 100 µM
same,TGI,SNB-75 CNS,> 100 µM
same,TGI,SR leukemia,> 100 µM
same,TGI,SW-620 colon,> 100 µM
same,TGI,T-47D breast,> 100 µM
same,TGI,TK-10 renal,> 100 µM
same,TGI,UACC-257 melanoma,> 100 µM
same,TGI,UACC-62 melanoma,> 100 µM
same,TGI,UO-31 renal,> 100 µM
COC(=O)c1cc(NC(=O)c2cc(NC(=O)Cc3c[nH]c4ccccc34)cn2C)cn1C,TGI,786-0 renal,> 100 µM
same,TGI,A498 renal,78.5 µM
same,TGI,A549 NSCLC,> 100 µM
same,TGI,ACHN renal,> 100 µM
same,TGI,BT-549 breast,> 100 µM
same,TGI,CAKI-1 renal,> 100 µM
same,TGI,CCRF-CEM leukemia,> 100 µM
same,TGI,COLO 205 colon,76.3 µM
same,TGI,DU-145 prostate,> 100 µM
same,TGI,EKVX NSCLC,74.3 µM
same,TGI,HCT-116 colon,84.1 µM
same,TGI,HCT-15 colon,> 100 µM
same,TGI,HL-60(TB) leukemia,95.4 µM
same,TGI,HOP-62 NSCLC,> 100 µM
same,TGI,HT29 colon,55.8 µM
same,TGI,K-562 leukemia,> 100 µM
same,TGI,KM12 colon,> 100 µM
same,TGI,LOX IMVI melanoma,> 100 µM
same,TGI,M14 melanoma,> 100 µM
same,TGI,MALME-3M melanoma,77.2 µM
same,TGI,MCF7 breast,> 100 µM
same,TGI,MDA-MB-231 breast,77.1 µM
same,TGI,MDA-MB-435,> 100 µM
same,TGI,MDA-N,> 100 µM
same,TGI,MOLT-4 leukemia,> 100 µM
same,TGI,NCI-H226 lung,> 100 µM
same,TGI,NCI-H23 lung,83.5 µM
same,TGI,NCI-H460 lung,> 100 µM
same,TGI,NCI/ADR-RES ovarian,> 100 µM
same,TGI,OVCAR-3 ovarian,> 100 µM
same,TGI,OVCAR-4 ovarian,> 100 µM
same,TGI,OVCAR-5 ovarian,> 100 µM
same,TGI,OVCAR-8 ovarian,> 100 µM
same,TGI,PC-3 prostate,96.2 µM
same,TGI,RPMI-8226 leukemia,48.4 µM
same,TGI,RXF 393 renal,> 100 µM
same,TGI,SF-268 CNS,> 100 µM
same,TGI,SF-295 CNS,> 100 µM
same,TGI,SF-539 CNS,> 100 µM
same,TGI,SK-MEL-2 melanoma,68.1 µM
same,TGI,SK-MEL-28 melanoma,> 100 µM
same,TGI,SK-MEL-5 melanoma,63.8 µM
same,TGI,SK-OV-3 ovarian,> 100 µM
same,TGI,SN12C renal,> 100 µM
same,TGI,SNB-19 CNS,85.7 µM
same,TGI,SNB-75 CNS,92.9 µM
same,TGI,SW-620 colon,> 100 µM
same,TGI,T-47D breast,> 100 µM
same,TGI,TK-10 renal,> 100 µM
same,TGI,UACC-62 melanoma,60.8 µM
same,TGI,UO-31 renal,85.2 µM
CN1N=C(c2ccccc2)C(C(c2ccccc2[N+](=O)[O-])C2C(=O)N(C)N=C2c2ccccc2)C1=O (stereo not given),TGI,786-0 renal,> 100 µM
same,TGI,A498 renal,> 100 µM
same,TGI,A549 NSCLC,> 100 µM
same,TGI,ACHN renal,> 100 µM
same,TGI,BT-549 breast,> 100 µM
same,TGI,CAKI-1 renal,> 100 µM
same,TGI,CCRF-CEM leukemia,60.1 µM
same,TGI,COLO 205 colon,> 100 µM
same,TGI,DU-145 prostate,> 100 µM
same,TGI,EKVX NSCLC,> 100 µM
same,TGI,HCC-2998 colon,> 100 µM
same,TGI,HCT-116 colon,> 100 µM
same,TGI,HCT-15 colon,> 100 µM
same,TGI,HL-60(TB) leukemia,52 µM
same,TGI,HOP-62 NSCLC,> 100 µM
same,TGI,HOP-92 NSCLC,> 100 µM
same,TGI,HS 578T breast,> 100 µM
same,TGI,HT29 colon,> 100 µM
same,TGI,IGROV1 ovarian,> 31.6 µM
same,TGI,K-562 leukemia,> 100 µM
same,TGI,KM12 colon,> 100 µM
same,TGI,LOX IMVI melanoma,77.4 µM
same,TGI,M14 melanoma,> 100 µM
same,TGI,MALME-3M melanoma,> 100 µM
same,TGI,MCF7 breast,> 100 µM
same,TGI,MDA-MB-231 breast,> 100 µM
same,TGI,MDA-MB-435,> 100 µM
same,TGI,MDA-N,> 100 µM
same,TGI,MOLT-4 leukemia,72.7 µM
same,TGI,NCI-H226 lung,> 96.5 µM
same,TGI,NCI-H23 lung,> 100 µM
same,TGI,NCI-H460 lung,> 100 µM
same,TGI,NCI-H522 lung,> 100 µM
same,TGI,NCI/ADR-RES ovarian,> 100 µM
same,TGI,OVCAR-3 ovarian,> 100 µM
same,TGI,OVCAR-4 ovarian,> 100 µM
same,TGI,OVCAR-5 ovarian,> 100 µM
same,TGI,OVCAR-8 ovarian,> 100 µM
same,TGI,PC-3 prostate,> 100 µM
same,TGI,RPMI-8226 leukemia,> 100 µM
same,TGI,RXF 393 renal,> 100 µM
same,TGI,SF-268 CNS,> 100 µM
same,TGI,SF-295 CNS,> 100 µM
same,TGI,SF-539 CNS,> 100 µM
same,TGI,SK-MEL-2 melanoma,> 100 µM
same,TGI,SK-MEL-28 melanoma,> 100 µM
same,TGI,SK-MEL-5 melanoma,> 100 µM
same,TGI,SK-OV-3 ovarian,> 100 µM
same,TGI,SN12C renal,> 100 µM
same,TGI,SNB-19 CNS,> 100 µM
same,TGI,SNB-75 CNS,> 100 µM
same,TGI,SW-620 colon,> 100 µM
same,TGI,T-47D breast,> 100 µM
same,TGI,TK-10 renal,> 100 µM
same,TGI,U251 CNS,> 100 µM
same,TGI,UACC-257 melanoma,> 100 µM
same,TGI,UACC-62 melanoma,> 100 µM
same,TGI,UO-31 renal,> 100 µM
CCOC(=O)c1nc2ccc(C(F)(F)F)cc2nc1Nc1ccc(F)cc1,TGI,786-0 renal,> 100 µM
same,TGI,A498 renal,> 100 µM
same,TGI,A549 NSCLC,82.9 µM
same,TGI,ACHN renal,> 100 µM
same,TGI,BT-549 breast,> 100 µM
same,TGI,CAKI-1 renal,> 100 µM
same,TGI,COLO 205 colon,> 100 µM
same,TGI,DU-145 prostate,> 100 µM
same,TGI,HCT-116 colon,> 100 µM
same,TGI,HCT-15 colon,> 100 µM
same,TGI,HL-60(TB) leukemia,> 100 µM
same,TGI,HOP-62 NSCLC,> 100 µM
same,TGI,HOP-92 NSCLC,98.9 µM
same,TGI,HS 578T breast,73.8 µM
same,TGI,HT29 colon,> 100 µM
same,TGI,IGROV1 ovarian,> 100 µM
same,TGI,K-562 leukemia,> 100 µM
same,TGI,KM12 colon,> 100 µM
same,TGI,LOX IMVI melanoma,> 100 µM
same,TGI,M14 melanoma,> 100 µM
same,TGI,MALME-3M melanoma,> 100 µM
same,TGI,MCF7 breast,> 100 µM
same,TGI,MDA-MB-435,> 100 µM
same,TGI,MDA-N,> 100 µM
same,TGI,MOLT-4 leukemia,> 100 µM
same,TGI,NCI-H23 lung,> 100 µM
same,TGI,NCI-H460 lung,> 100 µM
same,TGI,NCI-H522 lung,> 100 µM
same,TGI,NCI/ADR-RES ovarian,> 100 µM
same,TGI,OVCAR-3 ovarian,> 100 µM
same,TGI,OVCAR-4 ovarian,> 100 µM
same,TGI,OVCAR-5 ovarian,> 100 µM
same,TGI,OVCAR-8 ovarian,> 100 µM
same,TGI,PC-3 prostate,> 100 µM
same,TGI,RXF 393 renal,> 100 µM
same,TGI,SF-268 CNS,> 100 µM
same,TGI,SF-295 CNS,> 100 µM
same,TGI,SF-539 CNS,> 100 µM
same,TGI,SK-MEL-2 melanoma,> 100 µM
same,TGI,SK-MEL-28 melanoma,> 100 µM
same,TGI,SK-OV-3 ovarian,> 100 µM
same,TGI,SN12C renal,> 100 µM
same,TGI,SNB-19 CNS,> 100 µM
same,TGI,SNB-75 CNS,84.3 µM
same,TGI,SW-620 colon,> 100 µM
same,TGI,T-47D breast,> 100 µM
same,TGI,TK-10 renal,> 100 µM
same,TGI,UACC-257 melanoma,> 100 µM
same,TGI,UACC-62 melanoma,> 100 µM
same,TGI,UO-31 renal,> 100 µM
